The values below come from PubChem BioAssay AID330 (DTP/NCI, 2004).

“And” between values parts separate entries of the source, which are not always exact repeats. Identical values can stand only once. Inconclusive results and toxic doses are left out.

In the test the test system is P388 leukemia ip, CD2F1 mice, survival T/C. Briefly: NCI In Vivo Anticancer Drug Screen. Data for tumor model P388 Leukemia (intraperitoneal) in CD2F1 (CDF1) mice. Particulars: endpoint: median survival time, higher = longer survival. An outline of the steps:
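Mice carrying the transplanted tumor received test compound or vehicle. Survival was recorded in each group, and the value is the treated-group measurement divided by that of the vehicle-treated control group.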

[1] abbreviates: dose: 50.0 mg/kg/injection, schedule: Q01DX005 (ip), vehicle: Klucel (hydroxypropylcellulose) (HPC).
[2] abbreviates: dose: 100.0 mg/kg/injection, schedule: Q01DX005 (ip), vehicle: Klucel (hydroxypropylcellulose) (HPC).
Setting [3] is: dose: 200.0 mg/kg/injection, schedule: Q01DX005 (ip), vehicle: Klucel (hydroxypropylcellulose) (HPC).
Where [4] appears, read: dose: 50.0 mg/kg/injection, schedule: Q01DX005 (ip), vehicle: saline.
The mark [5] stands for this setting: dose: 200.0 mg/kg/injection, schedule: Q01DX005 (ip), vehicle: saline.
Where [6] appears, read: dose: 100.0 mg/kg/injection, schedule: Q04DX002 (ip), vehicle: saline with Tween-80.
Where [7] appears, read: dose: 200.0 mg/kg/injection, schedule: Q04DX002 (ip), vehicle: saline with Tween-80.
The mark [8] stands for this setting: dose: 400.0 mg/kg/injection, schedule: Q04DX002 (ip), vehicle: saline with Tween-80.
The mark [9] stands for this setting: dose: 50.0 mg/kg/injection, schedule: Q01DX005 (ip), vehicle: saline with Tween-80.
[10] abbreviates: dose: 100.0 mg/kg/injection, schedule: Q01DX005 (ip), vehicle: saline with Tween-80.
Where [11] appears, read: dose: 200.0 mg/kg/injection, schedule: Q01DX005 (ip), vehicle: saline with Tween-80.

On to `Cc1ccccc1NC(=O)Nc1ccc(N(CCCl)CCCl)cc1`, for which the T/C reads like this: (dose: 50.0 mg/kg/injection, schedule: Q01DX001 (ip), vehicle: Klucel (hydroxypropylcellulose) (HPC)) 92 % of control; (dose: 100.0 mg/kg/injection, schedule: Q01DX001 (ip), vehicle: Klucel (hydroxypropylcellulose) (HPC)) 109 % of control; (dose: 200.0 mg/kg/injection, schedule: Q01DX001 (ip), vehicle: Klucel (hydroxypropylcellulose) (HPC)) 120 % of control.
Regarding `CCCCCCNC(N)=NCCCC(N)C(=O)O` (stereo not drawn), the T/C was 103 % of control under setting [1], 102 % of control under setting [2] and 106 % of control under setting [3].
Turning to `COC(C(=O)C1=C2Oc3c4c(cc(O)c3C(=O)C2C2=C(CCCC2)C1=O)OC(C)(C)C=C4)C(C)CCC=C(C)C` (stereo not drawn), the T/C runs as follows: under setting [4], 112 % of control; under setting [5], 90 % of control.
`CCCCCCCS(=O)(=O)OCCCCOS(=O)(=O)CCCCCCC`: the T/C runs as follows: (dose: 45.0 mg/kg/injection, schedule: Q01DX005 (ip), vehicle: acetone) 99 % of control; (dose: 90.0 mg/kg/injection, schedule: Q01DX005 (ip), vehicle: acetone) 100 % of control; (dose: 180.0 mg/kg/injection, schedule: Q01DX005 (ip), vehicle: acetone) 99 % of control.
In the case of `CC(=O)Nc1nc(=O)c2c(n1C(C)=O)N(C(C)=O)C(=O)C2`, the T/C by setting is: under setting [6], 103 % of control; under setting [7], 103 % of control; under setting [8], 100 % of control.
For `Brc1nn[nH]n1`, the T/C by setting is: (dose: 50.0 mg/kg/injection, schedule: Q01DX009 (ip), vehicle: Klucel (hydroxypropylcellulose) (HPC)) 101 % of control; (dose: 100.0 mg/kg/injection, schedule: Q01DX009 (ip), vehicle: Klucel (hydroxypropylcellulose) (HPC)) 90 % of control.
Turning to `COc1ccc(C(=O)CC(=O)CCC(=O)Nc2ccc(Cl)cc2Cl)cc1`, the T/C runs as follows: (dose: 60.0 mg/kg/injection, schedule: Q01DX005 (ip), vehicle: saline with Tween-80) 103 % of control; (dose: 120.0 mg/kg/injection, schedule: Q01DX005 (ip), vehicle: saline with Tween-80) 101 % of control; (dose: 240.0 mg/kg/injection, schedule: Q01DX005 (ip), vehicle: saline with Tween-80) 92 % of control.
Take `Cc1ccc(S(=O)(=O)NC(=O)Nc2ncn[nH]2)cc1`: the T/C is 99 % of control (dose: 50.0 mg/kg/injection, schedule: Q01DX009 (ip), vehicle: saline with Tween-80); 98 % of control (dose: 100.0 mg/kg/injection, schedule: Q01DX009 (ip), vehicle: saline with Tween-80); 104 % of control (dose: 200.0 mg/kg/injection, schedule: Q01DX009 (ip), vehicle: saline with Tween-80).
Consider `CCN(Cc1cccc(S(=O)(=O)O)c1)c1ccc(C(=C2C=CC(=[N+](CC)Cc3cccc(S(=O)(=O)O)c3)C=C2)c2ccccc2)cc1`, for which the T/C was 107 % of control under setting [4]; 110 % of control (dose: 100.0 mg/kg/injection, schedule: Q01DX005 (ip), vehicle: saline); 115 % of control under setting [5].
Take `COc1ccc(/C=C2\SC(=S)N(C3CC3)C2=O)cc1OC`: the T/C was 94 % of control under setting [1] and 88 % of control under setting [2].
Take `O=C(CBr)NC1OC(CO)C(O)C(O)C1O` (stereo not drawn): the T/C is 99 % of control (dose: 2.5 mg/kg/injection, schedule: Q01DX009 (ip), vehicle: saline); 112 % of control (dose: 5.0 mg/kg/injection, schedule: Q01DX009 (ip), vehicle: saline); 108 % of control (dose: 10.0 mg/kg/injection, schedule: Q01DX009 (ip), vehicle: saline).
Regarding `N#CN=[N+]([O-])c1ccc(Br)cc1`, the T/C is 108 % of control (dose: 6.25 mg/kg/injection, schedule: Q04DX003 (ip), vehicle: Klucel (hydroxypropylcellulose) (HPC)); 108 % of control (dose: 12.5 mg/kg/injection, schedule: Q04DX003 (ip), vehicle: Klucel (hydroxypropylcellulose) (HPC)); 90 % of control (dose: 25.0 mg/kg/injection, schedule: Q04DX003 (ip), vehicle: Klucel (hydroxypropylcellulose) (HPC)).
Take `CCC(=O)NC(Cc1ccccc1F)C(=O)O` (stereo not drawn): the T/C is 101 % of control (dose: 12.5 mg/kg/injection, schedule: Q01DX009 (ip), vehicle: saline); 88 % of control (dose: 25.0 mg/kg/injection, schedule: Q01DX009 (ip), vehicle: saline); 91 % of control and 93 % of control (dose: 50.0 mg/kg/injection, schedule: Q01DX009 (ip), vehicle: saline); 95 % of control (dose: 200.0 mg/kg/injection, schedule: Q01DX009 (ip), vehicle: saline).
On to `O=Nc1c(O)n(-c2ccccc2)c(=O)[nH]c1=O`, for which the T/C was 100 % of control (dose: 50.0 mg/kg/injection, schedule: Q04DX002 (ip), vehicle: suspension in saline); 101 % of control (dose: 100.0 mg/kg/injection, schedule: Q04DX002 (ip), vehicle: suspension in saline); 101 % of control (dose: 200.0 mg/kg/injection, schedule: Q04DX002 (ip), vehicle: suspension in saline).
For `CC(C)(C)N1OC1c1ccccc1` (stereo not drawn), the T/C was 108 % of control (dose: 25.0 mg/kg/injection, schedule: Q04DX003 (ip), vehicle: saline with Tween-80); 105 % of control (dose: 50.0 mg/kg/injection, schedule: Q04DX003 (ip), vehicle: saline with Tween-80); 108 % of control (dose: 100.0 mg/kg/injection, schedule: Q04DX003 (ip), vehicle: saline with Tween-80); 108 % of control (dose: 200.0 mg/kg/injection, schedule: Q04DX003 (ip), vehicle: saline with Tween-80).
For `COC(=O)C(O)CC1=CC[C@@H]2CC=C[C@H]12` (stereo partly drawn), the T/C is, setting by setting: under setting [9], 104 % of control; under setting [10], 104 % of control; under setting [11], 104 % of control.
`O=C1OCCC1C(=O)c1ccccc1` (stereo not drawn): the T/C reads like this: (dose: 50.0 mg/kg/injection, schedule: Q01DX001 (ip), vehicle: saline) 112 % of control; (dose: 100.0 mg/kg/injection, schedule: Q01DX001 (ip), vehicle: saline) 112 % of control; (dose: 200.0 mg/kg/injection, schedule: Q01DX001 (ip), vehicle: saline) 97 % of control.
On to `CC(C)CC(NC1=CC(=O)N(c2ccccc2)C1c1ccccc1)c1nc2ccccc2[nH]1` (stereo not drawn), for which the T/C by setting is: under setting [1], 99 % of control; under setting [2], 95 % of control; under setting [3], 95 % of control.
As for `Cc1ccc(S(=O)(=O)C(=S)N(C)N(C)C)cc1`, the T/C is, setting by setting: (dose: 12.5 mg/kg/injection, schedule: Q01DX009 (ip), vehicle: Klucel (hydroxypropylcellulose) (HPC)) 115 % of control; (dose: 25.0 mg/kg/injection, schedule: Q01DX009 (ip), vehicle: Klucel (hydroxypropylcellulose) (HPC)) 117 % of control.
Turning to `c1ccc2c(SCCCSc3c4ccccc4nc4ccccc34)c3ccccc3nc2c1`, the T/C runs as follows: (dose: 60.0 mg/kg/injection, schedule: Q01DX005 (ip), vehicle: Klucel (hydroxypropylcellulose) (HPC)) 97 % of control; (dose: 120.0 mg/kg/injection, schedule: Q01DX005 (ip), vehicle: Klucel (hydroxypropylcellulose) (HPC)) 91 % of control; (dose: 240.0 mg/kg/injection, schedule: Q01DX005 (ip), vehicle: Klucel (hydroxypropylcellulose) (HPC)) 95 % of control.
As for `CCOC(=O)C(C(=O)OCC)=C(C)/C=C/C(Cl)(Cl)Cl`, the T/C was 110 % of control under setting [6], 102 % of control under setting [7] and 98 % of control under setting [8].
In the case of `COc1ccc(CCN2C=CC(C#N)C(C(C)=O)=C2)cc1OC` (stereo not drawn), the T/C runs as follows: under setting [1], 99 % of control; under setting [2], 94 % of control; under setting [3], 90 % of control.
As for `ClC(Cl)(Cl)c1nc2nccnc2[nH]1`, the T/C by setting is: (dose: 6.25 mg/kg/injection, schedule: Q01DX009 (ip), vehicle: saline with Tween-80) 88 % of control; (dose: 12.5 mg/kg/injection, schedule: Q01DX009 (ip), vehicle: saline with Tween-80) 100 % of control; (dose: 25.0 mg/kg/injection, schedule: Q01DX009 (ip), vehicle: saline with Tween-80) 107 % of control and 90 % of control.
For the compound `CC1COCCOCCOCC(C)OC(=O)CSCC(=O)O1` (stereo not drawn), the T/C runs as follows: (dose: 100.0 mg/kg/injection, schedule: Q04DX003 (ip), vehicle: saline) 100 % of control; (dose: 200.0 mg/kg/injection, schedule: Q04DX003 (ip), vehicle: saline) 104 % of control; (dose: 400.0 mg/kg/injection, schedule: Q04DX003 (ip), vehicle: saline) 92 % of control.
As for `Cc1noc(N)c1Sc1ccc(Br)cc1`, the T/C reads like this: under setting [9], 91 % of control; under setting [10], 100 % of control; under setting [11], 108 % of control.
